Target: T1, human recombinant mGluR5 (Homo sapiens, UniProt P41594)
T1 construct: expressed in transfected cells; host or cells: HEK 293 cell line; cultured with tetracycline, hygromycin and geneticin; tetracycline withdrawn 3-7 days before the assay
Assay: positive modulation of mGluR5, calcium based FLIPR assay in HEK 293 cells
Conditions: HEK 293 cell line expressing human recombinant mGluR5; peak height of Ca release fluorescence signal after glutamate at approximately 5% basal stimulation; nonlinear regression
Experimental: The positive modulation of mGluR5 is measured in a HEK 293 cell line expressing human recombinant mGluR5 and is detected with calcium based FLIPR assay. The cells are cultured with DMEM supplemented with 10% FCS, 2 μg/mL tetracycline, 100 μg/mL hygromycin and 500 μg/mL gneticin. The cell culture media is exchanged for tetracycline-free cell culture media 3-7 days before the assay. One day before the assay the cell culture medium is exchanged to DMEM without glutamine and phenol red and supplemented with 10% FCS, 100 μg/mL hygromycin and 500 μg/mL geneticin. On the assay day, the medium of the subconfluent cultures is removed and the cells are detached by addition of 2.5 ml EDTA(0.02%) per 175 cm2 culture flask for 1 minute. The cells are resuspend in Ringer solution (140 mM NaCl, 5 mM KCl, 2.5 mM CaCl2, 1.5 mM MgCl2, 5 mM Glucose, 10 mM Hepes; adjusted to pH 7.4 with NaOH), pooled and Ringer solution added to adjust the volume to 50 mL. The cell suspension is centrifuged for 5 min at 1500 U/min (425 g). The supernatant is removed and the cells washed a second time with 50 ml fresh Ringer solution and centrifuged again as before. The supernatant is again removed and the pellet resuspended in Ringer solution to 1,000,000 cells/ml (1×10^6 cells/mL). The cells are plated onto BD BioCoat Poly-D-Lysine 384 well plates (20.000 cells/well; 20 μl/well). The lid covered plates are then incubated until use at 37° C./10% CO2. For dye loading, 20 μl of Calcium-4 assay kit solution (prepared according to the manufacturer's description in Ringer solution) are added to the cells and the plates are incubated for 80 min 37° C. and then 10 min at room temperature.
Controls, Compound Dilution and Assay Execution:
Each assay plate contained wells with “high” and “low” controls:
Low controls 1% DMSO/ringer solution+basal glutamate activation (defined as 100% CTL).
High controls 10 μM CDPPB+basal glutamate activation (defined as 200% CTL).
Test compounds are dissolved and diluted in DMSO to 100-fold the desired concentrations. In a second step, the compounds are diluted in Ringer solution such that the compounds are 4-fold more concentrated than the desired final assay concentration. The final DMSO concentration was 1%.
20 μl of each compound solution are then transferred to the assay plate and the Ca2+ kinetic is measured to determine any intrinsic compound activity. After 5 min incubation in the FLIPR device, the second stimulation with 20 μl of glutamate in Ringer solution (glutamate concentration adjusted to approximately 5% basal stimulation of the maximal possible glutamate effect) is added and the kinetic Ca2+ response of the wells was measured for the modulation effect.
The peak height of the Ca release related fluorescence signal (9-66) is used for the EC50. The EC50 of the modulation is calculated over a nonlinear regression with GraphPad Prism (Table 1).

T1 sequence (P41594 21-1212): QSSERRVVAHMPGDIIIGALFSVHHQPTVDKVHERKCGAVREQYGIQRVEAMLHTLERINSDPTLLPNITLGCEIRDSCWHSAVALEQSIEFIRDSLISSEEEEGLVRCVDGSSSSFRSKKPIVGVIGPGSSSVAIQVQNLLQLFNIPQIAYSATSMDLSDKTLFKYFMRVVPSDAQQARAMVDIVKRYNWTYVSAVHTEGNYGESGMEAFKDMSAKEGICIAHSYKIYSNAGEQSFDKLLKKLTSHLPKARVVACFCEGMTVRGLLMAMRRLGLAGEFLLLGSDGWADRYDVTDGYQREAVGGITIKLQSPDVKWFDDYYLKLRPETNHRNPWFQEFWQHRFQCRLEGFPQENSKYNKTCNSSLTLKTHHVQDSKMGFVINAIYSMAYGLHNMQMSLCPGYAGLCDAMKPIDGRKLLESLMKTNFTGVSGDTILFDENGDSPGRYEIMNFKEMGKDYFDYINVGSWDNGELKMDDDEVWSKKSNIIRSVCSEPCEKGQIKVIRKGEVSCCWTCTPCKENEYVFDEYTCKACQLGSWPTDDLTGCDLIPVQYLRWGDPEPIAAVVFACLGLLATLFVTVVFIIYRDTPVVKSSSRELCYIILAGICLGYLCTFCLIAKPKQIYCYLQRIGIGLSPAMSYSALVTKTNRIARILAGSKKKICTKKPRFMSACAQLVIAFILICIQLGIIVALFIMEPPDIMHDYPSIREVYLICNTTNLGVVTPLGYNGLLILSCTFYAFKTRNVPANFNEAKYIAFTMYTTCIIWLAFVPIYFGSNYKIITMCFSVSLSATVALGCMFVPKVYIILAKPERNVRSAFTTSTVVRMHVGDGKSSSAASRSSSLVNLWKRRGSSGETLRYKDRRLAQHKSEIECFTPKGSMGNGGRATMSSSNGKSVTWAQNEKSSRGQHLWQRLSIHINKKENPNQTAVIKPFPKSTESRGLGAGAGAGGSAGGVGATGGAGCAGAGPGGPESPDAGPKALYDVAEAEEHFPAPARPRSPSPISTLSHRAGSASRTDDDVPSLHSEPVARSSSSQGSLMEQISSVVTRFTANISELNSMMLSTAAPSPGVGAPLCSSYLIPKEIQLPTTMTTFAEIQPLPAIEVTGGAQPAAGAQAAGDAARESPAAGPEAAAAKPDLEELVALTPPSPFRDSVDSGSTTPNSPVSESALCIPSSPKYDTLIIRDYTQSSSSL

`COc1cc(N2CCN(C(=O)Cn3nc(-c4ccc(F)c(C)c4)cc3CC(C)C)CC2)ncn1` [Example 7.01.121] gave an EC50 of 34 nM.
With `Cc1cc(-c2cc(CC(C)C)n(CC(=O)N3CCN(c4ncc(F)cn4)CC3)n2)ccc1F` [Example 7.01.122] the EC50 was 51 nM.
Work on `COc1cnc(N2CCN(C(=O)Cn3nc(-c4ccc(F)c(C)c4)cc3CC(C)C)CC2)nc1` [Example 7.01.123] yielded an EC50 of 36 nM.
In the case of `Cc1ccc(-c2cc(-c3ccccc3)n(CC(=O)N3CCN(c4ncccn4)CC3)n2)nc1C` [Example 7.01.124], the EC50 is reported as 8 nM.
`CCc1cccc(-c2cc(CC)n(CC(=O)N3CCN(c4ccccn4)CC3)n2)c1` [Example 7.01.128] was tested, and the EC50 was 204 nM.
Work on `CCc1cccc(-c2cc(CC)n(CC(=O)N3CCN(c4cc(OC)ncn4)CC3)n2)c1` [Example 7.01.129] yielded an EC50 of 212 nM.
For `CCc1cccc(-c2cc(CC)n(CC(=O)N3CCN(c4ncc(F)cn4)CC3)n2)c1` [Example 7.01.130], the EC50 was 471 nM.
`CCc1cccc(-c2cc(CC)n(CC(=O)N3CCN(c4ncccn4)CC3)n2)c1` [Example 7.01.131] gave an EC50 of 59 nM.
In the case of `CCc1cccc(-c2cc(CC)n(CC(=O)N3CCN(c4ncc(OC)cn4)CC3)n2)c1` [Example 7.01.132], the EC50 is reported as 138 nM.
With `Cc1ccc(-c2cc(-c3ccccc3)nn2CC(=O)N2CCN(c3ncccn3)CC2)nc1C` [Example 7.01.133] the EC50 was 652 nM.
Compound `Cc1cnc(-c2cc(-c3ccccc3)nn2CC(=O)N2CCN(c3ncccn3)CC2)cc1C` [Example 7.01.134] has an EC50 of 865 nM.
`Cc1cnc(-c2cc(-c3ccccc3)n(CC(=O)N3CCN(c4ncccn4)CC3)n2)cc1C` [Example 7.01.135] showed an EC50 of 21 nM.
Work on `Cc1cnc(-c2cc(-c3ccccc3)n(CC(=O)N3CCN(c4ccccn4)CC3)n2)cc1C` [Example 7.01.136] yielded an EC50 of 38 nM.
In the case of `CCc1cc(-c2cc(C)c(F)c(C)c2)nn1CC(=O)N1CCN(c2ncccn2)CC1` [Example 7.01.138], the EC50 is reported as 230 nM.
Work on `CCc1cc(-c2cc(C)c(F)c(C)c2)nn1CC(=O)N1CCN(c2ccccn2)CC1` [Example 7.01.139] yielded an EC50 of 595 nM.
`CCc1cc(-c2cc(C)c(F)c(C)c2)nn1CC(=O)N1CCN(c2cc(OC)ncn2)CC1` [Example 7.01.140] showed an EC50 of 707 nM.
`CCc1cc(-c2cc(C)c(F)c(C)c2)nn1CC(=O)N1CCN(c2ncc(OC)cn2)CC1` [Example 7.01.141] showed an EC50 of 346 nM.
Work on `CCc1cc(-c2cc(C)c(F)c(C)c2)nn1CC(=O)N1CCN(c2ncc(F)cn2)CC1` [Example 7.01.142] yielded an EC50 of 704 nM.
`O=C(Cn1nc(-c2ccccc2)cc1-c1cc(Cl)cs1)N1CCN(c2ncccn2)CC1` [Example 7.01.143] showed an EC50 of 20 nM.
For `COc1cccc(N2CCN(C(=O)Cn3nc(-c4ccc(F)c(C)c4)cc3-c3ccccc3)CC2)c1` [Example 7.01.144], the EC50 was 57 nM.
In the case of `CCc1cc(-c2ccc(F)c(C)c2)nn1CC(=O)N1CCN(c2cccc(OC)c2)CC1` [Example 7.01.145], the EC50 is reported as 216 nM.
`COc1cnc(N2CCN(C(=O)Cn3nc(-c4cccc(Cl)c4)cc3-c3ccccc3)CC2)nc1` [Example 7.01.147] showed an EC50 of 19 nM.
Work on `COc1cc(N2CCN(C(=O)Cn3nc(-c4cccc(Cl)c4)cc3-c3ccccc3)CC2)ncn1` [Example 7.01.148] yielded an EC50 of 20 nM.
Work on `O=C(Cn1nc(-c2cccc(Cl)c2)cc1-c1ccccc1)N1CCN(c2ncccn2)CC1` [Example 7.01.149] yielded an EC50 of 12 nM.
With `COc1cc(-c2cc(-c3ccccc3)n(CC(=O)N3CCN(c4ncccn4)CC3)n2)ccc1F` [Example 7.01.150] the EC50 was 5 nM.
In the case of `COc1cc(-c2cc(-c3ccccc3)n(CC(=O)N3CCN(c4ccccn4)CC3)n2)ccc1F` [Example 7.01.151], the EC50 is reported as 19 nM.
With `COc1cc(N2CCN(C(=O)Cn3nc(-c4ccc(F)c(OC)c4)cc3-c3ccccc3)CC2)ncn1` [Example 7.01.152] the EC50 was 26 nM.
For `COc1cc(-c2cc(-c3ccccc3)nn2CC(=O)N2CCN(c3ncccn3)CC2)ccc1F` [Example 7.01.153], the EC50 was 276 nM.
With `Cc1nc(-c2cc(-c3ccccc3)n(CC(=O)N3CCN(c4ncccn4)CC3)n2)ccc1F` [Example 7.01.154] the EC50 was 11 nM.
In the case of `Cc1nc(-c2cc(-c3ccccc3)n(CC(=O)N3CCN(c4ccccn4)CC3)n2)ccc1F` [Example 7.01.155], the EC50 is reported as 24 nM.
Compound `COc1cc(N2CCN(C(=O)Cn3nc(-c4ccc(F)c(C)n4)cc3-c3ccccc3)CC2)ncn1` [Example 7.01.156] has an EC50 of 33 nM.
In the case of `Cc1cc(-c2cc(-c3ccccc3)n(CC(=O)N3CCN(c4ncccn4)CC3)n2)ncc1F` [Example 7.01.157], the EC50 is reported as 35 nM.
`Cc1cc(-c2cc(-c3ccccc3)n(CC(=O)N3CCN(c4ccccn4)CC3)n2)ncc1F` [Example 7.01.158] showed an EC50 of 79 nM.
In the case of `COc1cc(N2CCN(C(=O)Cn3nc(-c4cc(C)c(F)cn4)cc3-c3ccccc3)CC2)ncn1` [Example 7.01.159], the EC50 is reported as 39 nM.
Work on `CCc1cc(-c2cccc(C#N)c2)nn1CC(=O)N1CCN(c2ncccn2)CC1` [Example 7.01.160] yielded an EC50 of 250 nM.
Compound `CCc1cc(-c2cccc(C#N)c2)nn1CC(=O)N1CCN(c2ccccn2)CC1` [Example 7.01.161] has an EC50 of 297 nM.
For `CCc1cc(-c2cccc(C#N)c2)nn1CC(=O)N1CCN(c2ncc(OC)cn2)CC1` [Example 7.01.162], the EC50 was 343 nM.
Work on `CCc1cc(-c2cccc(C#N)c2)nn1CC(=O)N1CCN(c2cc(OC)ncn2)CC1` [Example 7.01.163] yielded an EC50 of 490 nM.
`Cc1cccc(-c2cc(-c3ccccc3)nn2CC(=O)N2CCN(c3ncccn3)CC2)c1` [Example 7.01.164] was tested, and the EC50 was 42 nM.
`Cc1cccc(-c2cc(-c3ccccc3)n(CC(=O)N3CCN(c4ncccn4)CC3)n2)c1` [Example 7.01.165] gave an EC50 of 4 nM.
With `Cc1cccc(-c2cc(-c3ccccc3)n(CC(=O)N3CCN(c4ccccn4)CC3)n2)c1` [Example 7.01.166] the EC50 was 8 nM.
For `N#Cc1cccc(-c2cc(-c3ccccc3)n(CC(=O)N3CCN(c4ncccn4)CC3)n2)c1` [Example 7.01.167], the EC50 was 7 nM.
For `N#Cc1cccc(-c2cc(-c3ccccc3)n(CC(=O)N3CCN(c4ccccn4)CC3)n2)c1` [Example 7.01.168], the EC50 was 12 nM.
`COc1cnc(N2CCN(C(=O)Cn3nc(-c4cccc(C#N)c4)cc3-c3ccccc3)CC2)nc1` [Example 7.01.169] was tested, and the EC50 was 11 nM.
With `COc1cc(N2CCN(C(=O)Cn3nc(-c4cccc(C#N)c4)cc3-c3ccccc3)CC2)ncn1` [Example 7.01.170] the EC50 was 22 nM.
Compound `COc1cnc(N2CCN(C(=O)Cn3nc(-c4cccc(C)c4)cc3-c3ccccc3)CC2)nc1` [Example 7.01.171] has an EC50 of 9 nM.
In the case of `N#Cc1cccc(-c2cc(-c3ccccc3)nn2CC(=O)N2CCN(c3ncccn3)CC2)c1` [Example 7.01.172], the EC50 is reported as 152 nM.
`COc1cc(N2CCN(C(=O)Cn3nc(-c4cccc(C)c4)cc3-c3ccccc3)CC2)ncn1` [Example 7.01.173] gave an EC50 of 11 nM.
Compound `O=C(Cn1nc(-c2ccc(OC(F)F)cc2)cc1-c1ccccc1)N1CCN(c2ncccn2)CC1` [Example 7.01.174] has an EC50 of 3 nM.
Work on `O=C(Cn1nc(-c2ccc(OC(F)F)cc2)cc1-c1ccccc1)N1CCN(c2ccccn2)CC1` [Example 7.01.175] yielded an EC50 of 10 nM.
Compound `COc1cc(N2CCN(C(=O)Cn3nc(-c4ccc(OC(F)F)cc4)cc3-c3ccccc3)CC2)ncn1` [Example 7.01.176] has an EC50 of 10 nM.
Compound `COc1ccc(-c2cc(-c3ccccc3)n(CC(=O)N3CCN(c4ncccn4)CC3)n2)cc1C` [Example 7.01.177] has an EC50 of 24 nM.
In the case of `O=C(Cn1nc(-c2ccc(OC(F)F)cn2)cc1-c1ccccc1)N1CCN(c2ncccn2)CC1` [Example 7.01.178], the EC50 is reported as 21 nM.
